{
  "source": "the kinase profiling compilation of Christmann-Franck et al. (2016)",
  "experiment_in_all_cases": "KINOMEscan competition binding",
  "key": {"[1]": {"system": "KIT (human), P10721 [L576P]", "details": "compound 10.0 µM"}, "EPHA8 (human)": {"molecular_target": "EPHA8 (human) (UniProt P29322)", "details": "compound 10.0 µM"}, "STK38 (human)": {"molecular_target": "STK38 (human) (UniProt Q15208)", "sequence (Q15208 whole entry, looked up)": "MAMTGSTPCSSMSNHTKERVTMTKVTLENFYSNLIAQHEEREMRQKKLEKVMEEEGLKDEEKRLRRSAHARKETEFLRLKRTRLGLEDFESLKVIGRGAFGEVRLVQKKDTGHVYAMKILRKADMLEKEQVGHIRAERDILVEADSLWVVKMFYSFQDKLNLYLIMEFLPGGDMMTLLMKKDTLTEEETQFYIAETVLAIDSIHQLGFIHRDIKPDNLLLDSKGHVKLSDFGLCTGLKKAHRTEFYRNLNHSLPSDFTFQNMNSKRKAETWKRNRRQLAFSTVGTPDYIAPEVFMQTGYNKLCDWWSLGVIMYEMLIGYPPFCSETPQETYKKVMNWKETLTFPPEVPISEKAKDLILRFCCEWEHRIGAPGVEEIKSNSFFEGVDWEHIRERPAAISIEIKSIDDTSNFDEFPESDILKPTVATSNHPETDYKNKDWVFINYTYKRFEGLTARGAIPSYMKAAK", "details": "compound 10.0 µM"}, "IKBKE (human)": {"molecular_target": "IKBKE (human) (UniProt Q14164)", "details": "compound 10.0 µM"}, "ADCK4 (human)": {"molecular_target": "ADCK4 (human) (UniProt Q96D53)", "details": "compound 10.0 µM"}, "MST1R (human)": {"molecular_target": "MST1R (human) (UniProt Q04912)", "details": "compound 10.0 µM"}, "MAPK12 (human)": {"molecular_target": "MAPK12 (human) (UniProt P53778)", "sequence (P53778 whole entry, looked up)": "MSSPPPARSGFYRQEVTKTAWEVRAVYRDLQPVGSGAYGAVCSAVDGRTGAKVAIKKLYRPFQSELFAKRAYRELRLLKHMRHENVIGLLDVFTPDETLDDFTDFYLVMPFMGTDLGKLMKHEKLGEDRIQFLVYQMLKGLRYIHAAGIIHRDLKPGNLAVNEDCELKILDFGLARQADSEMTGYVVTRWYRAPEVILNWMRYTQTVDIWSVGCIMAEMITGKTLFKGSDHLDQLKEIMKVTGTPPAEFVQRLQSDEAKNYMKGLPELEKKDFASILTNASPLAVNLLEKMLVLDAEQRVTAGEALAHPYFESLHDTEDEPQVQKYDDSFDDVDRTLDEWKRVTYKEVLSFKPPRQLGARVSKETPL", "details": "compound 10.0 µM"}, "MKNK2 (human)": {"molecular_target": "MKNK2 (human) (UniProt Q9HBH9)", "sequence (Q9HBH9 whole entry, looked up)": "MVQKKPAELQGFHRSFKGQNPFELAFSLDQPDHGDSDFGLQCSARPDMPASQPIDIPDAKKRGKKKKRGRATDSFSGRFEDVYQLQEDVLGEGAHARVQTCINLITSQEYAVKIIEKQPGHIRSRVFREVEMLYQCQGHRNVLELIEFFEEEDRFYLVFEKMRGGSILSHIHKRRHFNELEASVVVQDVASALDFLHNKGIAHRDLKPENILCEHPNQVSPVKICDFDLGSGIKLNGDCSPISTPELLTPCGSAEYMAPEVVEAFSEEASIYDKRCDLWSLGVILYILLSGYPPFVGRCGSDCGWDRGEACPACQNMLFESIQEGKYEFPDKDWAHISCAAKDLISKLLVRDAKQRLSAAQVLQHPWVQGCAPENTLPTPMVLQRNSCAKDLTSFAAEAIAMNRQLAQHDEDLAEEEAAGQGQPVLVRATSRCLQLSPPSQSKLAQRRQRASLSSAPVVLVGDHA"}, "NEK11 (human)": {"molecular_target": "NEK11 (human) (UniProt Q8NG66)", "details": "compound 10.0 µM"}, "SGK110 (human)": {"molecular_target": "SGK110 (human) (UniProt P0C264)", "sequence (P0C264 whole entry, looked up)": "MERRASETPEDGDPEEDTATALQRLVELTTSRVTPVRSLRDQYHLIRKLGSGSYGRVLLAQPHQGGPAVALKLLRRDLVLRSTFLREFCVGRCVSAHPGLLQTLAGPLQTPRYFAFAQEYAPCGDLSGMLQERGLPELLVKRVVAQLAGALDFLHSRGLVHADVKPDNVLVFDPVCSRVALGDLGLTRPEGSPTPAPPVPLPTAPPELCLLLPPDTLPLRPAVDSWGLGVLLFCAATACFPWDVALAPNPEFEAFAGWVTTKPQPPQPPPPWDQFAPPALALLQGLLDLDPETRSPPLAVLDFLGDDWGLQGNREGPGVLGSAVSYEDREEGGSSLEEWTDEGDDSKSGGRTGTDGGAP", "details": "compound 10.0 µM"}, "PAK4 (human)": {"molecular_target": "PAK4 (human) (UniProt O96013)", "details": "compound 10.0 µM"}, "IRAK1 (human)": {"molecular_target": "IRAK1 (human) (UniProt P51617)", "details": "compound 10.0 µM"}, "CAMK1D (human)": {"molecular_target": "CAMK1D (human) (UniProt Q8IU85)", "details": "compound 10.0 µM"}, "ULK1 (human)": {"molecular_target": "ULK1 (human) (UniProt O75385)", "details": "compound 10.0 µM"}, "[2]": {"system": "ABL1 (human), P00519 [Y253F]", "details": "compound 10.0 µM"}, "[3]": {"system": "PIK3CA (human), P42336 [I800L]", "sequence (P42336 whole entry I800L, looked up)": "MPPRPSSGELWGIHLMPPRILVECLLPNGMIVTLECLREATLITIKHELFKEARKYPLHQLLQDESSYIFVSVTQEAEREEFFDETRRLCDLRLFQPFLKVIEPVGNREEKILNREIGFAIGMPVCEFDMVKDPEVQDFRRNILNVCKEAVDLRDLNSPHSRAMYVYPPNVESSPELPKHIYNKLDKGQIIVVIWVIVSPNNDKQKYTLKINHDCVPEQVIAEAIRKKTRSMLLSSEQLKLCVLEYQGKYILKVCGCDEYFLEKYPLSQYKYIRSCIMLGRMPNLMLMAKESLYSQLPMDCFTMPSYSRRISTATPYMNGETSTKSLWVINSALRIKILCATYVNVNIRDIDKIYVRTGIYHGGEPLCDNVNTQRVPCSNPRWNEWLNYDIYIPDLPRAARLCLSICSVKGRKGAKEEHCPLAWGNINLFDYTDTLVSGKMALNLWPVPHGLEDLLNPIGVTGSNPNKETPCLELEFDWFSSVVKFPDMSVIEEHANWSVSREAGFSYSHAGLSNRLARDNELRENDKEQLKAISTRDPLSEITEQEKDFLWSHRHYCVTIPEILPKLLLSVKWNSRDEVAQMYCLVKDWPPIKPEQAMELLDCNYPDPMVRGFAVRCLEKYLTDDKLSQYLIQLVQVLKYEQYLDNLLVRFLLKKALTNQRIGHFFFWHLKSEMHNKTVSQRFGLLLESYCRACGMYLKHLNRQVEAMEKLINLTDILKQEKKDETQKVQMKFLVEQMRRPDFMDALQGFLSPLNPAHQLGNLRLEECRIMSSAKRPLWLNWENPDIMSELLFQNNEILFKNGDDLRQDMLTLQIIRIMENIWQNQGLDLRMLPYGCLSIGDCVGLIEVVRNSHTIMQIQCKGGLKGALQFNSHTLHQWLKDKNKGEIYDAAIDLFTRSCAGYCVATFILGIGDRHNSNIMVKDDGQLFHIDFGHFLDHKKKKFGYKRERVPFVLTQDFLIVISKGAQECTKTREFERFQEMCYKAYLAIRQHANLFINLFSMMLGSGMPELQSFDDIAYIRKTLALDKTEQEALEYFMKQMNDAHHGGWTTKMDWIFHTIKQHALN", "details": "compound 10.0 µM"}, "RIPK2 (human)": {"molecular_target": "RIPK2 (human) (UniProt O43353)", "details": "compound 10.0 µM"}, "DCLK3 (human)": {"molecular_target": "DCLK3 (human) (UniProt Q9C098)", "details": "compound 10.0 µM"}, "MAP2K1 (human)": {"molecular_target": "MAP2K1 (human) (UniProt Q02750)", "sequence (Q02750 whole entry, looked up)": "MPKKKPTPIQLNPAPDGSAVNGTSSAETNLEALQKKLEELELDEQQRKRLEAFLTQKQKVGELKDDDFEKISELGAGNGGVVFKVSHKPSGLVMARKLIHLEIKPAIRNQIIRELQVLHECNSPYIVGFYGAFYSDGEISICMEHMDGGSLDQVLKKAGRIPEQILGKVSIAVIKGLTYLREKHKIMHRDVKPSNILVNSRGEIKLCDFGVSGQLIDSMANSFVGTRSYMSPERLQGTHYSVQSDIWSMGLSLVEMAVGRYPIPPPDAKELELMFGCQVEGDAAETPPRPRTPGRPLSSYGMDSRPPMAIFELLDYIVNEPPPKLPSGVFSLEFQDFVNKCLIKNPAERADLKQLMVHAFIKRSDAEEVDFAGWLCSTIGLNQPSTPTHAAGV", "details": "compound 10.0 µM"}, "GRK1 (human)": {"molecular_target": "GRK1 (human) (UniProt Q15835)", "details": "compound 10.0 µM"}, "IRAK4 (human)": {"molecular_target": "IRAK4 (human) (UniProt Q9NWZ3)", "details": "compound 10.0 µM"}, "PTK2B (human)": {"molecular_target": "PTK2B (human) (UniProt Q14289)", "details": "compound 10.0 µM"}, "CSNK1D (human)": {"molecular_target": "CSNK1D (human) (UniProt P48730)", "details": "compound 10.0 µM"}, "CDK16 (human)": {"molecular_target": "CDK16 (human) (UniProt Q00536)", "details": "compound 10.0 µM"}, "FYN (human)": {"molecular_target": "FYN (human) (UniProt P06241)", "details": "compound 10.0 µM"}, "FGFR2 (human)": {"molecular_target": "FGFR2 (human) (UniProt P21802)", "details": "compound 10.0 µM"}, "LTK (human)": {"molecular_target": "LTK (human) (UniProt P29376)", "details": "compound 10.0 µM"}, "RPS6KA5 KD1 (human)": {"molecular_target": "RPS6KA5 KD1 (human) (UniProt O75582)", "details": "compound 10.0 µM"}, "PDGFRB (human)": {"molecular_target": "PDGFRB (human) (UniProt P09619)", "sequence (P09619 whole entry, looked up)": "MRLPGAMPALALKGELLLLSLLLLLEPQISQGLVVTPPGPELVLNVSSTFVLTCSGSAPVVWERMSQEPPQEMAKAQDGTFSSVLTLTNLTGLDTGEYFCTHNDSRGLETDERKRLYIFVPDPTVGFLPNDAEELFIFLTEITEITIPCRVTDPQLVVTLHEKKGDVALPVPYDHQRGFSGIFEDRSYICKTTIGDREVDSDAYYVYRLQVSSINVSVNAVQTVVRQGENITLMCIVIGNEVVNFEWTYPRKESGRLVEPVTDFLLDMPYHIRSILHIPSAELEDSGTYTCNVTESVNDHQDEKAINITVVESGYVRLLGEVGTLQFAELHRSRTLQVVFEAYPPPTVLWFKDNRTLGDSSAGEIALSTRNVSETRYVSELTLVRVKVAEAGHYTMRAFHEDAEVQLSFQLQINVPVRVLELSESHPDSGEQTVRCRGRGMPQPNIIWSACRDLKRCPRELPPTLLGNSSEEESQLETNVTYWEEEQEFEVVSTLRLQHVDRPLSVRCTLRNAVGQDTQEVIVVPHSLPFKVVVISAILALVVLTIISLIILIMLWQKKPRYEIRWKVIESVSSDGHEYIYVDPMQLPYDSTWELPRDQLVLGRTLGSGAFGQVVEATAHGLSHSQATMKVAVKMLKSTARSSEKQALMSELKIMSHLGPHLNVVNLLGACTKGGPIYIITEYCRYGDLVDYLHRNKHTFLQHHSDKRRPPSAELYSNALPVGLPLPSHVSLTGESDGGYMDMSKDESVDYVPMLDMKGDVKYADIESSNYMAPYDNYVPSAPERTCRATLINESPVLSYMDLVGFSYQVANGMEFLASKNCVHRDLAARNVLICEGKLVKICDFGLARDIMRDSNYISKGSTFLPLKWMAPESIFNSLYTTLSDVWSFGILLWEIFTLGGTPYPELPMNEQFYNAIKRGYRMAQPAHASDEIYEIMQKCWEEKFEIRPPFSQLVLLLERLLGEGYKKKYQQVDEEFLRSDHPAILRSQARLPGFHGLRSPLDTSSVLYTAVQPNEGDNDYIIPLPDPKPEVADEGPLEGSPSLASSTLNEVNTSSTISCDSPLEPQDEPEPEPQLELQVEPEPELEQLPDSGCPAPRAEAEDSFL", "details": "compound 10.0 µM"}, "VRK2 (human)": {"molecular_target": "VRK2 (human) (UniProt Q86Y07)", "details": "compound 10.0 µM"}, "[4]": {"system": "PIK3CA (human), P42336 [E545A]", "sequence (P42336 whole entry E545A, looked up)": "as the sequence (P42336 whole entry I800L, looked up) above, with E545A, L800I counted along it", "details": "compound 10.0 µM"}, "CSF1R (human)": {"molecular_target": "CSF1R (human) (UniProt P07333)", "details": "compound 10.0 µM"}, "NEK7 (human)": {"molecular_target": "NEK7 (human) (UniProt Q8TDX7)", "details": "compound 10.0 µM"}, "BMX (human)": {"molecular_target": "BMX (human) (UniProt P51813)", "details": "compound 10.0 µM"}, "HIPK1 (human)": {"molecular_target": "HIPK1 (human) (UniProt Q86Z02)", "details": "compound 10.0 µM"}, "PIP4K2C (human)": {"molecular_target": "PIP4K2C (human) (UniProt Q8TBX8)", "details": "compound 10.0 µM"}, "OXSR1 (human)": {"molecular_target": "OXSR1 (human) (UniProt O95747)", "details": "compound 10.0 µM"}, "CHUK (human)": {"molecular_target": "CHUK (human) (UniProt O15111)", "sequence (O15111 whole entry, looked up)": "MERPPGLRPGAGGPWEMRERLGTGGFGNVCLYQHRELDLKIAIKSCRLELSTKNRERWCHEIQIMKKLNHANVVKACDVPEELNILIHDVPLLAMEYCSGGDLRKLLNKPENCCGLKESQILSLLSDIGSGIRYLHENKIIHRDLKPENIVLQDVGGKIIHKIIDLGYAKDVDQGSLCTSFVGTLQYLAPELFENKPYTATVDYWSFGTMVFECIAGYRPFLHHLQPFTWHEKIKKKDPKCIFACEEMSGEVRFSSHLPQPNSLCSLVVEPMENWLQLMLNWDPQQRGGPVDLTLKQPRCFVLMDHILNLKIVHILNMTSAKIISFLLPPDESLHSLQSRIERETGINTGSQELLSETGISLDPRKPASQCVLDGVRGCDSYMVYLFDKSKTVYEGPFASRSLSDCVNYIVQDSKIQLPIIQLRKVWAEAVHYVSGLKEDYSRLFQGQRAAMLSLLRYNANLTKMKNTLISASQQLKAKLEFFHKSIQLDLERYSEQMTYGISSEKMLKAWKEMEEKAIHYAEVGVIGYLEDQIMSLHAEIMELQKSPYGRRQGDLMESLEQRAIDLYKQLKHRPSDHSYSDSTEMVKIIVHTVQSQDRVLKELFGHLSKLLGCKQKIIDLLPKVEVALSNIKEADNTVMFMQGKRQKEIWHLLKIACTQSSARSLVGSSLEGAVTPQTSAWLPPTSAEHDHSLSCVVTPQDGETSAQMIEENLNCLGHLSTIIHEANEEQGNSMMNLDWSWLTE", "details": "compound 10.0 µM"}, "CDKL5 (human)": {"molecular_target": "CDKL5 (human) (UniProt O76039)", "details": "compound 10.0 µM"}, "CHEK2 (human)": {"molecular_target": "CHEK2 (human) (UniProt O96017)", "details": "compound 10.0 µM"}, "MAP3K6 (human)": {"molecular_target": "MAP3K6 (human) (UniProt O95382)", "details": "compound 10.0 µM"}},
  "data": [
    {"smiles": "COc1cc(C(=O)N2CCC(N3CCN(C)CC3)CC2)ccc1Nc1ncc2c(n1)N(C)c1ccccc1C(=O)N2C", "values": [
      {"measurement": "kinase still bound, per cent of control", "setting": "[1]", "result": 100, "unit": "%"},
      {"measurement": "kinase still bound, per cent of control", "setting": "EPHA8 (human)", "result": 80, "unit": "%"},
      {"measurement": "kinase still bound, per cent of control", "setting": "STK38 (human)", "result": 96, "unit": "%"},
      {"measurement": "kinase still bound, per cent of control", "setting": "IKBKE (human)", "result": 96, "unit": "%"},
      {"measurement": "kinase still bound, per cent of control", "setting": "ADCK4 (human)", "result": 94, "unit": "%"},
      {"measurement": "kinase still bound, per cent of control", "setting": "MST1R (human)", "result": 98, "unit": "%"},
      {"measurement": "kinase still bound, per cent of control", "setting": "MAPK12 (human)", "result": 76, "unit": "%"},
      {"measurement": "Kd", "setting": "MKNK2 (human)", "result": 380, "unit": "nM"},
      {"measurement": "kinase still bound, per cent of control", "setting": "MKNK2 (human); compound 10.0 µM", "result": 1.2, "unit": "%"},
      {"measurement": "kinase still bound, per cent of control", "setting": "NEK11 (human)", "result": 100, "unit": "%"},
      {"measurement": "kinase still bound, per cent of control", "setting": "SGK110 (human)", "result": 62, "unit": "%"},
      {"measurement": "kinase still bound, per cent of control", "setting": "PAK4 (human)", "result": 94, "unit": "%"},
      {"measurement": "kinase still bound, per cent of control", "setting": "IRAK1 (human)", "result": 100, "unit": "%"},
      {"measurement": "kinase still bound, per cent of control", "setting": "CAMK1D (human)", "result": 69, "unit": "%"},
      {"measurement": "kinase still bound, per cent of control", "setting": "ULK1 (human)", "result": 80, "unit": "%"},
      {"measurement": "kinase still bound, per cent of control", "setting": "[2]", "result": 89, "unit": "%"},
      {"measurement": "kinase still bound, per cent of control", "setting": "[3]", "result": 38, "unit": "%"},
      {"measurement": "kinase still bound, per cent of control", "setting": "RIPK2 (human)", "result": 100, "unit": "%"},
      {"measurement": "kinase still bound, per cent of control", "setting": "DCLK3 (human)", "result": 90, "unit": "%"},
      {"measurement": "kinase still bound, per cent of control", "setting": "MAP2K1 (human)", "result": 100, "unit": "%"},
      {"measurement": "kinase still bound, per cent of control", "setting": "GRK1 (human)", "result": 91, "unit": "%"},
      {"measurement": "kinase still bound, per cent of control", "setting": "IRAK4 (human)", "result": 83, "unit": "%"},
      {"measurement": "kinase still bound, per cent of control", "setting": "PTK2B (human)", "result": 78, "unit": "%"},
      {"measurement": "residual activity", "setting": "CSNK1D (human)", "result": 81, "unit": "%"},
      {"measurement": "residual activity", "setting": "CDK16 (human)", "result": 96, "unit": "%"},
      {"measurement": "kinase still bound, per cent of control", "setting": "FYN (human)", "result": 100, "unit": "%"},
      {"measurement": "kinase still bound, per cent of control", "setting": "FGFR2 (human)", "result": 95, "unit": "%"},
      {"measurement": "kinase still bound, per cent of control", "setting": "LTK (human)", "result": 32, "unit": "%"},
      {"measurement": "kinase still bound, per cent of control", "setting": "RPS6KA5 KD1 (human)", "result": 96, "unit": "%"},
      {"measurement": "kinase still bound, per cent of control", "setting": "PDGFRB (human)", "result": 100, "unit": "%"},
      {"measurement": "kinase still bound, per cent of control", "setting": "VRK2 (human)", "result": 99, "unit": "%"},
      {"measurement": "kinase still bound, per cent of control", "setting": "[4]", "result": 98, "unit": "%"},
      {"measurement": "kinase still bound, per cent of control", "setting": "CSF1R (human)", "result": 98, "unit": "%"},
      {"measurement": "kinase still bound, per cent of control", "setting": "NEK7 (human)", "result": 100, "unit": "%"},
      {"measurement": "kinase still bound, per cent of control", "setting": "BMX (human)", "result": 87, "unit": "%"},
      {"measurement": "kinase still bound, per cent of control", "setting": "HIPK1 (human)", "result": 100, "unit": "%"},
      {"measurement": "kinase still bound, per cent of control", "setting": "PIP4K2C (human)", "result": 40, "unit": "%"},
      {"measurement": "kinase still bound, per cent of control", "setting": "OXSR1 (human)", "result": 88, "unit": "%"},
      {"measurement": "kinase still bound, per cent of control", "setting": "CHUK (human)", "result": 100, "unit": "%"},
      {"measurement": "residual activity", "setting": "CDKL5 (human)", "result": 100, "unit": "%"},
      {"measurement": "kinase still bound, per cent of control", "setting": "CHEK2 (human)", "result": 66, "unit": "%"},
      {"measurement": "kinase still bound, per cent of control", "setting": "MAP3K6 (human)", "result": 100, "unit": "%"}
    ]}
  ]
}
